In ChEMBL document CHEMBL3627608, “Crystal structures of human RIP2 kinase catalytic domain complexed with ATP-competitive inhibitors: Foundations for understanding inhibitor selectivity” (Bioorg Med Chem, 2015):

Tests used:
[1] = target: Serine/threonine-protein kinase Nek6 (Homo sapiens) (UniProt Q9HC98); experiment: Inhibition of NEK6 (unknown origin) at 10 uM after 120 mins P33 radiolabeled kinase activity assay
[2] = target: Serine/threonine-protein kinase 26 (Homo sapiens) (UniProt Q9P289); experiment: Inhibition of MST4 (unknown origin) at 10 uM after 120 mins P33 radiolabeled kinase activity assay
[3] = target: Dual specificity tyrosine-phosphorylation-regulated kinase 4 (Homo sapiens) (UniProt Q9NR20); experiment: Inhibition of DYRK4 (unknown origin) at 10 uM after 120 mins P33 radiolabeled kinase activity assay
[4] = target: Serine/threonine-protein kinase 25 (Homo sapiens) (UniProt O00506); experiment: Inhibition of STK25 (unknown origin) at 10 uM after 120 mins P33 radiolabeled kinase activity assay
[5] = target: Mitogen-activated protein kinase kinase kinase 8 (Homo sapiens) (UniProt P41279); experiment: Inhibition of COT1 (unknown origin) at 10 uM after 120 mins P33 radiolabeled kinase activity assay
[6] = target: Dual specificity mitogen-activated protein kinase kinase 6 (Homo sapiens) (UniProt P52564); experiment: Inhibition of MKK6 (unknown origin) at 10 uM after 120 mins P33 radiolabeled kinase activity assay
[7] = target: Serine/threonine-protein kinase 16 (Homo sapiens) (UniProt O75716); experiment: Inhibition of STK16 (unknown origin) at 10 uM after 120 mins P33 radiolabeled kinase activity assay
[8] = target: Serine/threonine-protein kinase ICK (Homo sapiens) (UniProt Q9UPZ9); experiment: Inhibition of LCK2 (unknown origin) at 10 uM after 120 mins P33 radiolabeled kinase activity assay
[9] = test system: Fibroblast growth factor receptor; experiment: Inhibition of FGFR (unknown origin) at 10 uM after 120 mins P33 radiolabeled kinase activity assay; conditions: Homo sapiens
[10] = target: Serine/threonine-protein kinase tousled-like 2 (Homo sapiens) (UniProt Q86UE8); experiment: Inhibition of TLK2 (unknown origin) at 10 uM after 120 mins P33 radiolabeled kinase activity assay
[11] = target: Wee1-like protein kinase (Homo sapiens) (UniProt P30291); experiment: Inhibition of WEE1 (unknown origin) at 10 uM after 120 mins P33 radiolabeled kinase activity assay
Wee1-like protein kinase (Homo sapiens), sequence (P30291 whole entry, looked up): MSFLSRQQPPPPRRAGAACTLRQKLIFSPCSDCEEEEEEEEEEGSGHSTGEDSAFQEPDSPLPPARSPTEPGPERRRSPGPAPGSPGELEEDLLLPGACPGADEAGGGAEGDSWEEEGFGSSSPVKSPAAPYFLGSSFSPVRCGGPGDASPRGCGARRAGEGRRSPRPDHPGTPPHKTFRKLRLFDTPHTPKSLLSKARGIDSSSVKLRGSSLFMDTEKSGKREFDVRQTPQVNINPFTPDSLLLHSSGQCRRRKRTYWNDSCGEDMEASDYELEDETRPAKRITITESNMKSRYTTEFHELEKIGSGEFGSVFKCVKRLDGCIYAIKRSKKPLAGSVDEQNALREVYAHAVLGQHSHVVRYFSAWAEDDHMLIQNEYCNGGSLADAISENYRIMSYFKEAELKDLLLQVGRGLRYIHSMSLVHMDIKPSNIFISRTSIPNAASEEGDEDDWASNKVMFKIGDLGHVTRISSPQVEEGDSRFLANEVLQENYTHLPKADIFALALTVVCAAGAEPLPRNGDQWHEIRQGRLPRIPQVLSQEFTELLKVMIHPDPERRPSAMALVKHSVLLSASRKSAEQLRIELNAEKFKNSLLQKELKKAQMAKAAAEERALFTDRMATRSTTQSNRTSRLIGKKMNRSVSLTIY

Serine/threonine-protein kinase 16 (Homo sapiens), sequence (O75716 whole entry): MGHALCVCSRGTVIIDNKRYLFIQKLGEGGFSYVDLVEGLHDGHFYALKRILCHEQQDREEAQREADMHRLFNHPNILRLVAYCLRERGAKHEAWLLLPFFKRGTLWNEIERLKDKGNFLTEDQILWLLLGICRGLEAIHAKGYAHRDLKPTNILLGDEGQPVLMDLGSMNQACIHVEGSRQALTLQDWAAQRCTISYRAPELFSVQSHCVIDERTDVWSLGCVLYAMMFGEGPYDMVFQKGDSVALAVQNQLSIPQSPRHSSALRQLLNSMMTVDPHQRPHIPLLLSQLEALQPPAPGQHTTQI
Serine/threonine-protein kinase 26 (Homo sapiens), sequence (Q9P289 2-416 limits assumed): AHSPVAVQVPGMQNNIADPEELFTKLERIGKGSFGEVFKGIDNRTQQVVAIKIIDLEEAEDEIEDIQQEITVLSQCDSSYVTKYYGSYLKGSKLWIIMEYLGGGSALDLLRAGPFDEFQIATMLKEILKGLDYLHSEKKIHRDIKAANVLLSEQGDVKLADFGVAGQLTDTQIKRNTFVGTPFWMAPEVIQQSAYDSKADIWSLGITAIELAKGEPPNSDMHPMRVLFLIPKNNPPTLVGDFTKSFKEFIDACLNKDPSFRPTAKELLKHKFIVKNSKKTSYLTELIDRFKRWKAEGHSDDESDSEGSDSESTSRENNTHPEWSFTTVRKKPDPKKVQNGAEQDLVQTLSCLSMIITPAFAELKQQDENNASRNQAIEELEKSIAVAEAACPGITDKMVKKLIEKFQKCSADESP
Serine/threonine-protein kinase tousled-like 2 (Homo sapiens), sequence (Q86UE8 whole entry, looked up): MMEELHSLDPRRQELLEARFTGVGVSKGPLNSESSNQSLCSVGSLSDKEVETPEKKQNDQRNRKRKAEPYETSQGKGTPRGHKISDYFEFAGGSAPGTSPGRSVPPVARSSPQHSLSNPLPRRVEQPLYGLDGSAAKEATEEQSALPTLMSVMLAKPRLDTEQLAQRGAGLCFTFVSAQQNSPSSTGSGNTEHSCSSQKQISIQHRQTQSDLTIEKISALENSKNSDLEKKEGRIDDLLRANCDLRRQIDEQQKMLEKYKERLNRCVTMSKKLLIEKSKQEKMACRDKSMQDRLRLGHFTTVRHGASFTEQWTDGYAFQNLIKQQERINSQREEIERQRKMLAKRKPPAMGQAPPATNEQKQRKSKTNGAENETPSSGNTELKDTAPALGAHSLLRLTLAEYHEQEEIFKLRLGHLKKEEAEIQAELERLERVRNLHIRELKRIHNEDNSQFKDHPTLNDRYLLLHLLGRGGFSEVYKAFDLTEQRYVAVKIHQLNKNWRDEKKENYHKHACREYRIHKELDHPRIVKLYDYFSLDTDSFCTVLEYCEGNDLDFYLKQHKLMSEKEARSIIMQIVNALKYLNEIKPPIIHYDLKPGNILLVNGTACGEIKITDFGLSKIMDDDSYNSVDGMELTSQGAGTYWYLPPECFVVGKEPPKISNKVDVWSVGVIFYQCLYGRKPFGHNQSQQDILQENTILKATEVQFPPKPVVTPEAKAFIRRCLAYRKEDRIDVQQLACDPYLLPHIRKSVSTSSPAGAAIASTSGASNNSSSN
Serine/threonine-protein kinase 25 (Homo sapiens), sequence (O00506 whole entry, looked up): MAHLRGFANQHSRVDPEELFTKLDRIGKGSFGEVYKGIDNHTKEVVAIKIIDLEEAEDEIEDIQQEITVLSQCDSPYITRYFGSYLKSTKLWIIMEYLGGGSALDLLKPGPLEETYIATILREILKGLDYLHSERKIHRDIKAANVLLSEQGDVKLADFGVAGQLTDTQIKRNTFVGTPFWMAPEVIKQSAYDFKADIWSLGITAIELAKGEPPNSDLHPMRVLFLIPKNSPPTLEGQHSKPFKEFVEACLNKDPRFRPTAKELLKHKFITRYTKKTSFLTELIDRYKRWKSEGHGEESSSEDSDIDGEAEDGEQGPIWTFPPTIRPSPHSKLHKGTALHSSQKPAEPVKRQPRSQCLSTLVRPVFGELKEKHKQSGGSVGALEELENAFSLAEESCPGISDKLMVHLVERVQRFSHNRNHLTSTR
Serine/threonine-protein kinase ICK (Homo sapiens), sequence (Q9UPZ9 whole entry): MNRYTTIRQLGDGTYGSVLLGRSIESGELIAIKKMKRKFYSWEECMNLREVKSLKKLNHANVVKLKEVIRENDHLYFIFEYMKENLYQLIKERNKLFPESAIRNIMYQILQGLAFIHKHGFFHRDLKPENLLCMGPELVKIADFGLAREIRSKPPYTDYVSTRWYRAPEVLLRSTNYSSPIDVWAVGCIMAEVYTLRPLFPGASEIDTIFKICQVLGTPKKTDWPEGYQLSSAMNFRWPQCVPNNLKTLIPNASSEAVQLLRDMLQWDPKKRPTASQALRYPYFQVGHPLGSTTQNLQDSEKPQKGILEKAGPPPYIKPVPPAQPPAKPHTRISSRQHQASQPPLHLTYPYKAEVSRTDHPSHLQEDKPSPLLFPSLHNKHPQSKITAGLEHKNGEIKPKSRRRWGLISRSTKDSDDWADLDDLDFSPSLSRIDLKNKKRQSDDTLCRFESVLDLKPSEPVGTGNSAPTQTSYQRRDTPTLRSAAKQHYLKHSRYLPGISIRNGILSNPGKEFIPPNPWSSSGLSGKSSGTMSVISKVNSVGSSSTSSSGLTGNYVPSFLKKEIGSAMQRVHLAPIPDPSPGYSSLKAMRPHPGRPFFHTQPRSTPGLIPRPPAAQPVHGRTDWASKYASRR
Mitogen-activated protein kinase kinase kinase 8 (Homo sapiens), sequence (P41279 whole entry, looked up): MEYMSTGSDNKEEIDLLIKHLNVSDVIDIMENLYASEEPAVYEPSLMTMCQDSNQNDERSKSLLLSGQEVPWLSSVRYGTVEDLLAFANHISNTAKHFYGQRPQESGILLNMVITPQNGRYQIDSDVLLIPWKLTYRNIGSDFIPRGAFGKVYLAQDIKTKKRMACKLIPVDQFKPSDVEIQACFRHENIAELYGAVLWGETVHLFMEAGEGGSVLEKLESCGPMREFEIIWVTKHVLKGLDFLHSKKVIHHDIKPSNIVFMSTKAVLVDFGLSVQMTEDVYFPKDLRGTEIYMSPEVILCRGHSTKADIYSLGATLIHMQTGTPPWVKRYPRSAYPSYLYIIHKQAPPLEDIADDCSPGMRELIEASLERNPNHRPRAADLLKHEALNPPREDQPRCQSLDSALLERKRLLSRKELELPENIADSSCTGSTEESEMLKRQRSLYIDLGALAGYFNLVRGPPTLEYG
Dual specificity mitogen-activated protein kinase kinase 6 (Homo sapiens), sequence (P52564 whole entry): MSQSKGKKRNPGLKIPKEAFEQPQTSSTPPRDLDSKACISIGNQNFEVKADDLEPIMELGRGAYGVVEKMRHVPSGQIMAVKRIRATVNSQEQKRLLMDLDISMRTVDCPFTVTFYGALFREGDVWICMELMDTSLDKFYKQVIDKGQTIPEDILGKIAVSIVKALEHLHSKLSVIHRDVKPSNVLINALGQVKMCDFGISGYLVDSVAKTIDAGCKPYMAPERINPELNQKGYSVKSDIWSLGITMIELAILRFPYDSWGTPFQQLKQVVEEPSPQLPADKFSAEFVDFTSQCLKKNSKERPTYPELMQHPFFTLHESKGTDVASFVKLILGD
Dual specificity tyrosine-phosphorylation-regulated kinase 4 (Homo sapiens), sequence (Q9NR20 whole entry): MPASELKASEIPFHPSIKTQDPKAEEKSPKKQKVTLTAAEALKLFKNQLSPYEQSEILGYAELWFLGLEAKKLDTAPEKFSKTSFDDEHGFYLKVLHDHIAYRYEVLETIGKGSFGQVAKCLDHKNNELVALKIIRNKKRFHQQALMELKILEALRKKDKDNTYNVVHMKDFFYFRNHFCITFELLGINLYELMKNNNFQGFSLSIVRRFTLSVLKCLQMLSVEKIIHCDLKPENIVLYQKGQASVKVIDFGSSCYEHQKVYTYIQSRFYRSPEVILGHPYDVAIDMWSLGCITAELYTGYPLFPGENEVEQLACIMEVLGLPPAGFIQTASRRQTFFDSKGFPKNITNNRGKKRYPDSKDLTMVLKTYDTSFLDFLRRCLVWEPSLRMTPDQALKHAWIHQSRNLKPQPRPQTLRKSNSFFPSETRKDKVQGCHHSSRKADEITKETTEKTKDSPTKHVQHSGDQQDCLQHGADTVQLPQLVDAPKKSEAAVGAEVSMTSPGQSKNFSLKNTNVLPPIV
Serine/threonine-protein kinase Nek6 (Homo sapiens), sequence (Q9HC98 whole entry): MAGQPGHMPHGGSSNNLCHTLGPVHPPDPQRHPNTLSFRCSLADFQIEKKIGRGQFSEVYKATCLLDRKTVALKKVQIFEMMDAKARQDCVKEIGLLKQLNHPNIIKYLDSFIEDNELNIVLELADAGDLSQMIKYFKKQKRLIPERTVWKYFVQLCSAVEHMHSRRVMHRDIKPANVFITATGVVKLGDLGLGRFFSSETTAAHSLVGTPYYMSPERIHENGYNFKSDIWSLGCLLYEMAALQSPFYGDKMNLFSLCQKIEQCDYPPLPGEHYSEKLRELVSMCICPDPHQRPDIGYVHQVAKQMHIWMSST

SMILES: COCCNC(=O)c1ccc2c(c1)nc(-c1cnc(-c3ccc(Cl)cc3)[nH]1)n2CCOC
- inhibition [1]: -5.95%
- inhibition [2]: 3.31%
- inhibition [3]: -3.46%
- inhibition [4]: -0.09%

SMILES: CS(=O)(=O)c1cccc(Nc2nccc(-c3sc(N4CCOCC4)nc3-c3cccc(NS(=O)(=O)c4c(F)cccc4F)c3)n2)c1
- inhibition [5]: 11.2%
- inhibition [6]: 80.9%
- inhibition [7]: 7.44%
- inhibition [8]: -4.6%
- inhibition [9]: 46.7%
- inhibition [10]: -6.51%

SMILES: CC(C)(C)c1cc(NC(=O)Nc2ccc(Oc3ccncc3)cc2)no1
- inhibition [11]: -4.91%
